{
  "source": "paper PMC5335257",
  "about": "“Promoting in vivo remyelination with small molecules: a neuroreparative pharmacological treatment for Multiple Sclerosis” (Scientific Reports, 2017)",
  "key": {"[1]": {"system": "OPCs from P0 mice", "test": "Survival assay (Casp3+-A2B5+ cells)", "type": "cell-based, mouse", "conditions": "murine P0 OPCs, 1 μM, 2 DIV", "protocol": "We isolated OPCs, as previously described. Briefly, a stock papain solution was prepared containing ([…]; Worthington Biochemical), L-cysteine (0.2 mg/ml; Sigma), and EDTA (0.2 mg/ml; Sigma) in Hank’s Balanced Salt Solution (HBSS; Invitrogen) without Ca^2+ and Mg[2]. Then, the cerebral cortices of P0 CD1 mice were dissected out and placed for 5 minutes at 37 °C in a medium containing the stock papain solution in HBSS with Ca^2+ and Mg^2+ (1:10; Invitrogen) in order to easily remove the meninges. Once meninges and choroid plexus were removed, the tissue was enzymatically dissociated for 5 minutes at 37 °C again by using the papain solution (1:10 in HBSS without Ca^2+ and Mg^2+) and the digested tissue was then filtered through a 100 μm nylon mesh strainer (BD Biosciences) and seeded on poly-L-ornithine-coated (Sigma) 75 cm^2 flasks in DMEM medium (Invitrogen) containing 10% foetal bovine serum (FBS; BioWhittaker) and 100 U/mL penicillin, 0.1 mg/mL streptomycin and 0.25 μg/ml Amphotericin B antibiotic antimycotic solution (Sigma). Cultures were maintained at 37 °C and 5% CO2, and the medium was changed every 3 days. […] The resulting enriched oligodendrocyte progenitor cell suspension was counted and seeded. […]"}, "[2]": {"system": "PDE7", "parameters": "method as in PMID 24437940", "conditions": "cited from earlier work"}, "[3]": {"system": "cerebellar slices demyelinated with LPC", "test": "Ex vivo remyelination in cerebellar slice cultures demyelinated with LPC", "type": "cell-based, CD1 P7 mice", "conditions": "5 μM, 3 days post lesion (3DPL)", "protocol": "The protocol used was modified from previously described. CD1 P7 mice were decapitated, and their cerebella were dissected into ice-cold HBSS (Invitrogen). 300 μm sagittal slices of cerebellum were cut using a McIllwain tissue chopper, placed on Millicell-CM organotypic culture inserts (3 slices per insert; Millipore) in a medium containing HBSS:BME: horse serum (1:2:1, Invitrogen), 28 mM D (+) - glucose (Normapur), […] L-Glutamine (Invitrogen) and 100 U/mL penicillin, 0.1 mg/mL streptomycin and 0.25 μg/ml Amphotericin B antibiotic anti-mycotic solution (Sigma) and maintained at 5% CO2 and 37 °C. Medium was changed every two days, and after 7 days in culture, demyelination was induced by addition of 0.5 mg/ml LPC (Sigma) to the medium for 15 h. After that, slices were treated with fresh medium containing PDE7-GSK3 or GSK3 inhibitors (VP1.15, VP3.15 or TDZD8; 5 μM). Cultures were maintained for 1 or 3 days post lesion (DPL), and then fixed for 40 minutes and immunostained with anti-MBP antibodies (myelin basic protein –as a marker of myelin; 1:200; Serotec; Cat#MCA4095) and anti-neurofilament antibody (as a marker of axons; 1:200; Abcam; Cat#ab8135). Fluorescence images were taken on a confocal SP5 resonant scanner (Leica Microsystems) at 1μm intervals in white matter areas at x40 magnification. The photographs were merged and co-localisation of both markers was quantified with Image J software using the colocalization highlighter plugin. This measurement was related to the area occupied by axons (neurofilament staining) and normalized with control values showing the data as the mean normalized myelination index ± SEM. Quantification was made in at least three independent experiments."}, "[4]": {"system": "OPCs from P0 mice", "test": "Proliferation assay (BrdU incorporation)", "type": "cell-based, mouse", "conditions": "murine P0 OPCs, 1 μM, 72 h", "protocol": "We isolated OPCs, as previously described. Briefly, a stock papain solution was prepared containing ([…]; Worthington Biochemical), L-cysteine (0.2 mg/ml; Sigma), and EDTA (0.2 mg/ml; Sigma) in Hank’s Balanced Salt Solution (HBSS; Invitrogen) without Ca^2+ and Mg[2]. Then, the cerebral cortices of P0 CD1 mice were dissected out and placed for 5 minutes at 37 °C in a medium containing the stock papain solution in HBSS with Ca^2+ and Mg^2+ (1:10; Invitrogen) in order to easily remove the meninges. […] The resulting enriched oligodendrocyte progenitor cell suspension was counted and seeded.\nOPCs were placed on coverslips coated with poly-L-lysine (Sigma) and laminin (Sigma; 2 × 10^4 cells/well) and they were incubated with the inhibitors (VP3.15 or TDZD8; 1 μM) in the serum free medium described above. After 42 h in culture, BrdU (50 μM; Sigma) was added for 6 h and after a total of 72 h in culture, the cells were fixed and BrdU incorporation was detected by immunocytochemistry (1:20; G3G4, HybridomaBank) combined with the detection of the oligodendroglial marker Olig2 (1:250; Millipore; Cat#AB9610). […]"}, "[5]": {"system": "OPCs isolated from P0 mice", "test": "Differentiation assay, murine OPCs", "type": "cell-based, mouse", "conditions": "murine P0 OPCs, 1 μM, 5, 7 and 10 DIV", "protocol": "We isolated OPCs, as previously described. Briefly, a stock papain solution was prepared containing ([…]; Worthington Biochemical), L-cysteine (0.2 mg/ml; Sigma), and EDTA (0.2 mg/ml; Sigma) in Hank’s Balanced Salt Solution (HBSS; Invitrogen) without Ca^2+ and Mg[2]. Then, the cerebral cortices of P0 CD1 mice were dissected out and placed for 5 minutes at 37 °C in a medium containing the stock papain solution in HBSS with Ca^2+ and Mg^2+ (1:10; Invitrogen) in order to easily remove the meninges. Once meninges and choroid plexus were removed, the tissue was enzymatically dissociated for 5 minutes at 37 °C again by using the papain solution (1:10 in HBSS without Ca^2+ and Mg^2+) and the digested tissue was then filtered through a 100 μm nylon mesh strainer (BD Biosciences) and seeded on poly-L-ornithine-coated (Sigma) 75 cm^2 flasks in DMEM medium (Invitrogen) containing 10% foetal bovine serum (FBS; BioWhittaker) and 100 U/mL penicillin, 0.1 mg/mL streptomycin and 0.25 μg/ml Amphotericin B antibiotic antimycotic solution (Sigma). Cultures were maintained at 37 °C and 5% CO2, and the medium was changed every 3 days. When the cultures reached confluence, they were shaken overnight at 250 rpm and at 37 °C in order to detach the OPCs located on the top of the confluent astrocyte monolayer and the medium was then filtered through a 40μm nylon mesh strainer (BDBiosciences) and centrifuged at 900 rpm. Cells were seeded twice (45 minutes each) in bacterial grade Petri dishes (Sterilin) to remove microglial cells. The resulting enriched oligodendrocyte progenitor cell suspension was counted and seeded.\n(§1) Purified OPCs were placed on coverslips coated with poly-L-lysine and laminin in 24-well tissue culture dishes at a density of 2 × 10^4 cells/well. To promote differentiation, the cells were maintained in the differentiation medium (described above) and PDE7-GSK3 or GSK3 inhibitors (VP3.15 or TDZD8; 1 μM) were added to the culture medium. Different controls were used for the dual or single inhibitors due to the active substance being dissolved in differing amounts of DMSO. After 5, 7 and 10 DIV the cells were fixed with 4% PFA for further immunocytochemical analysis. Anti-CNPase antibodies (1:200;Covance; Cat#SMI-91R), anti-MBP antibodies (1:200; Serotec; Cat#MCA4095) for detecting oligodendrocytes and anti-Olig2 antibodies (1:250; Millipore; Cat#AB9610) as a marker for all oligodendroglial stages were used. Ten random fluorescence digital images were taken in each coverslip with a DFC480 FX digital camera (Leica) coupled to a Leica DM5000 B microscope for quantification. Data were expressed as a mean ratio of differentiated oligodendrocytes (CNPase^+-Olig2^+ double positive cells) with respect to total Olig2^+ cells ± SEM or percentage of CNPase^+ cells respect to control ± SEM, in at least three independent experiments, except with human samples (two independent experiments)."}, "[6]": {"system": "GSK-3", "parameters": "method as in PMID 24437940", "conditions": "read-out: GSK-3 inhibition IC50; cited from earlier work"}, "[7]": {"system": "adult human OPCs", "test": "Differentiation assay, adult human OPCs", "type": "cell-based", "conditions": "adult human OPCs, 1 μM, 5 DIV", "protocol": "Human brain samples were obtained from adult patients of temporal lobe epilepsy resistant to pharmacological treatment or traumatic brain injury; they underwent surgical treatment by the Neurosurgery Service at the Hospital Universitario de La Princesa (Madrid, Spain) and Hospital 12 de Octubre (Madrid, Spain). All tissue samples were obtained under protocols approved by the Research Ethics Committee of Toledo (Spain) review boards. All were conducted in accordance with the Helsinki Declaration and were approved by the Research Ethics Committee of Toledo (Spain). All patients provided informed consent prepared under the guidelines of the Research Ethics Committee at their respective hospital in Madrid (Spain).\nFor cells obtained from human biopsies, the same protocol was used except that papain solution was used 1:2.5 in HBSS for 10 minutes for meningeal disintegration and 1:10 in HBSS for 15 minutes for the tissue digestion, 25 cm[2] flasks were used, the medium was supplemented with 10 ng/ml of human PDGF-AA (Millipore) for 2 weeks and then incubated for 2 more weeks without growth factors before shaking and the shaking was carried out at 230 rpm instead of 250 rpm.\nas §1"}},
  "data": [
    {"smiles": "Cn1sc(=O)n(Cc2ccccc2)c1=O", "note": "[TDZD8, reference compound]", "values": [
      {"measurement": "OPC survival (Casp3+-A2B5+ apoptotic cells)", "setting": "[1]", "result": "increased OPC survival"},
      {"measurement": "PDE7 inhibition", "setting": "[2]", "result": "does not inhibit PDE7"},
      {"measurement": "IC50", "setting": "[2]; read-out: PDE7 inhibition IC50", "result": "> 100", "unit": "µM"},
      {"measurement": "remyelination (normalized myelination index)", "setting": "[3]", "result": "no effect"},
      {"measurement": "OPC proliferation (BrdU+-Olig2+ cells)", "setting": "[4]", "result": "no changes"},
      {"measurement": "number of mature oligodendrocytes (CNPase+-Olig2+ cells) vs control", "setting": "[5]", "result": "no effect"},
      {"measurement": "IC50", "setting": "[6]", "result": 0.69, "unit": "µM"},
      {"measurement": "number of CNPase+-Olig2+ cells vs control (differentiation)", "setting": "[7]", "result": "did not show any effect"}
    ]}
  ]
}
